Legend:
[1] = test system: keratinocytes (HaCaT); assay: Safety, LDH test in keratinocytes; assay type: cell-based; conditions: 48 hours, vs Triton X-100
Protocol: (§1) In order to test the safety of the compounds, both normal human cells were used: keratinocytes (HaCaT), fibroblasts (BJ), primary melanocytes that occur in the skin, as well as human cancer cells: the hepatocarcinoma line HepG2 and the neuroblastoma line SH-SY5Y, which are considered a model for the assessment of hepatocytotoxicity and neurocytotoxicity. The concentrations of the tested compounds in the range of […] were used in the studies. The cell lines used in the research were purchased from the American Type Culture Collection (ATCC) and were cultured in media recommended by the manufacturer with the addition of FBS and antibiotics in an incubator ensuring appropriate culture conditions, i.e. humidity, temperature and CO2 concentration. Cells were seeded into multiwell plates and incubated with the test compounds for 48 hours. After this time, MTT and LDH tests were performed to assess cell viability. The MTT test is based on the ability to transform the substrate: [3-(4,5-dimethyl-2-thiazolyl)-2,5-diphenyl-2H-tetrazolium bromide into a colored product only by living cells. The absorbance at 570 nm, which corresponds to the absorption maximum for the product, is directly proportional to cell viability. The LDH test is based on testing the activity of the enzyme lactate dehydrogenase in the culture medium, which is released from cells as a result of damage to the cell membrane, e.g. as a result of cell death. Triton X-100 was used as a positive control in the test. The determination is colorimetric, the substrate is transformed by the released enzyme into a colored product, an increase in absorbance indicates a larger amount of the released enzyme, and thus confirms greater damage to cell membranes. Tables 7 and 8 present the results obtained, which correspond to the viability of cells incubated with the compounds in relation to the viability of cells constituting a control sample, i.e. incubated with the solvent (DMSO) at the same concentration as in the case of the groups tested in the MTT test or in relation to the results obtained for the Triton X-100 positive control in the LDH test. They indicate that the compounds are safe at the concentrations tested.

[2] = test system: fibroblasts (BJ); assay: Safety, MTT test in fibroblasts; assay type: cell-based; conditions: 48 hours
Protocol: as §1

[3] = test system: neuroblastoma SH-SY5Y; assay: Safety, LDH test in SH-SY5Y; assay type: cell-based; conditions: 48 hours, vs Triton X-100
Protocol: as §1

[4] = test system: primary melanocytes; assay: Safety, LDH test in primary melanocytes; assay type: cell-based; conditions: 48 hours, vs Triton X-100
Protocol: as §1

[5] = test system: S. typhimurium TA98; assay: Ames microplate test, TA98; assay type: cell-based, Salmonella typhimurium; conditions: without S9
Protocol: (§2) Bacteria were grown overnight in growth medium.

[6] = test system: S. typhimurium TA1537; assay: Ames microplate test, TA1537; assay type: cell-based, Salmonella typhimurium; conditions: without S9
Protocol: as §2

Row | SMILES | LDH, Keratinocytes (HaCaT) ([1]; 100 μM) | LDH, Keratinocytes (HaCaT) ([1]; 150 μM) | LDH, Keratinocytes (HaCaT) ([1]; 200 μM) | LDH, Keratinocytes (HaCaT) ([1]; 250 μM) | MTT, Fibroblasts (BJ) ([2]; 100 μM) | MTT, Fibroblasts (BJ) ([2]; 150 μM) | MTT, Fibroblasts (BJ) ([2]; 200 μM) | MTT, Fibroblasts (BJ) ([2]; 250 μM) | LDH, Neuroblastoma SH-SY5Y ([3]; 100 μM) | LDH, Neuroblastoma SH-SY5Y ([3]; 150 μM) | LDH, Neuroblastoma SH-SY5Y ([3]; 200 μM) | LDH, Neuroblastoma SH-SY5Y ([3]; 250 μM) | LDH, Primary melanocytes ([4]; 100 μM) | LDH, Primary melanocytes ([4]; 150 μM) | LDH, Primary melanocytes ([4]; 200 μM) | LDH, Primary melanocytes ([4]; 250 μM) | also measured
1 | O=C(/C=C/c1ccc(Cl)cc1)NCCCO [H-330/21, (2E)-3-(4-chlorophenyl)-N-(3-hydroxypropyl)prop-2-enamide] | 3.66 percentage of positive control | 5.33 percentage of positive control | 17.03 percentage of positive control | 24.24 percentage of positive control | 100.54 ± 5.01 % of solvent control | 94.85 ± 3.51 % of solvent control | 85.52 ± 3.08 % of solvent control | 76.51 ± 1.80 % of solvent control | 6.19 percentage of positive control | 4.90 percentage of positive control | 8.35 percentage of positive control | 13.41 percentage of positive control | 5.63 percentage of positive control | 13.09 percentage of positive control | 10.91 percentage of positive control | 18.10 percentage of positive control | –
2 | Cc1ccc(/C=C/C(=O)NCCCCCO)cc1 [H-415/21, (2E)-N-(5-hydroxypentyl)-3-(4-methylphenyl)prop-2-enamide] | 2.95 percentage of positive control | 6.70 percentage of positive control | 10.18 percentage of positive control | 18.19 percentage of positive control | 102.12 ± 2.71 % of solvent control | 101.92 ± 2.88 % of solvent control | 96.13 ± 3.64 % of solvent control | 92.86 ± 4.30 % of solvent control | 3.90 percentage of positive control | 7.24 percentage of positive control | 8.92 percentage of positive control | 10.55 percentage of positive control | 4.22 percentage of positive control | 6.01 percentage of positive control | 8.34 percentage of positive control | 14.94 percentage of positive control | Increase in the number of yellow wells compared to the reference level, TA98 ([5]; 0.5 mM): 0.47; Increase in the number of yellow wells compared to the reference level, TA98 ([5]; 1.0 mM): 0.24; Increase in the number of yellow wells compared to the reference level, TA98 ([5]; 2.0 mM): 0.35; Increase in the number of yellow wells compared to the reference level, TA1537 ([6]; 0.5 mM): 0.33; Increase in the number of yellow wells compared to the reference level, TA1537 ([6]; 1.0 mM): 0.33; Increase in the number of yellow wells compared to the reference level, TA1537 ([6]; 2.0 mM): 0.00
3 | O=C(/C=C/c1ccc(Cl)cc1)NCCO [H-427/21, (2E)-3-(4-chlorophenyl)-N-(2-hydroxyethyl)prop-2-enamide] | 2.76 percentage of positive control | 3.69 percentage of positive control | 6.50 percentage of positive control | 17.79 percentage of positive control | 101.82 ± 3.99 % of solvent control | 100.76 ± 3.34 % of solvent control | 100.37 ± 3.92 % of solvent control | 98.13 ± 2.81 % of solvent control | 3.09 percentage of positive control | 4.45 percentage of positive control | 5.98 percentage of positive control | 8.87 percentage of positive control | 3.93 percentage of positive control | 4.44 percentage of positive control | 4.31 percentage of positive control | 15.01 percentage of positive control | –

— patent US20250263376A1, “(E)-N-CINNAMOYLAMINOALKANOLS WITH MELANOGENESIS INHIBITORY ACTIVITY” (Uniwersytet Jagiellonski, priority 2024, published 2025)
